Assay results published in ChEMBL document CHEMBL4196229, “GPR40 Receptor Agonists for the Treatment of Type 2 Diabetes and Related Diseases” (ACS Med Chem Lett, 2018).

Molecular target: Free fatty acid receptor 1 (Homo sapiens, UniProt O14842)
Experiment: Agonist activity at human GPR40 expressed in human 1321N1 cells assessed as IP1 accumulation after 1 hr by HTRF assay
Type: functional, cell-based

Sequence of Free fatty acid receptor 1 (O14842 whole entry): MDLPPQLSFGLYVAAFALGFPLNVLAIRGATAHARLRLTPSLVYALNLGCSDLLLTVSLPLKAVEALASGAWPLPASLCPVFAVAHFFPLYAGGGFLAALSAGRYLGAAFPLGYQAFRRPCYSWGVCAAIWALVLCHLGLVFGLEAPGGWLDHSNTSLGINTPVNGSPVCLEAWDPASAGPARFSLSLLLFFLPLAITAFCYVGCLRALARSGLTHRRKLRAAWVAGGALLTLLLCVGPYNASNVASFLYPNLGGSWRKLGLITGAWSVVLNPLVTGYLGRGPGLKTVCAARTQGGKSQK

EC50 [nM] | SMILES
11 | Cc1cc(OCCC(C)(C)O)cc(C)c1-c1ccc(F)c2c1CC[C@H]2Nc1ccc([C@H]2C[C@@H]2C(=O)O)nc1
2 | Cc1cc(-c2nnn(CC(C)(C)O)n2)cc(C)c1-c1ccc(F)c2c1CC[C@H]2Nc1ccc([C@H]2C[C@@H]2C(=O)O)nc1

Further lines, the molecule ahead of its results:

SMILES | EC50 [nM]
Cc1cc(-c2cccc(=O)n2C)cc(C)c1-c1ccc(F)c2c1CC[C@H]2Nc1ccc([C@H]2C[C@@H]2C(=O)O)nc1 | 4
Cc1cc(OCC2CCOC2)cc(C)c1-c1ccc(F)c2c1CC[C@H]2Nc1ccc([C@H]2C[C@@H]2C(=O)O)nc1 (stereo not given in full) | 7
CNC(=O)c1cc(C)c(-c2ccc(F)c3c2CC[C@H]3Nc2ccc([C@H]3C[C@@H]3C(=O)O)nc2)c(C)c1 | 148
